We go through one molecule from ChEMBL document CHEMBL3886227, “Multiheteroaryl compounds as inhibitors of H-PGDS and their use for treating prostaglandin D2 mediated diseases” (2015).

The target in this experiment is Hematopoietic prostaglandin D synthase (Homo sapiens, UniProt O60760). Briefly: Fluorescence Polarization Binding Assay (FPBA): This assay essentially is available from Cayman Chemical Company as Catalog item #600007. The test data reported for the aforementioned Examples (H-PGDS FPBA IC50) were generated using a 96-well, instead of the 384-well, format.Detection analyte and H-PGDS-MBP fusion enzyme were incubated in the presence of reduced glutathione (5 mM) for 60-90 minutes at room temperature and FP was measured using a TECAN SAFIRE 2 plate reader equipped with absorbance, fluorescence, fluorescence polarization and FRET capabilities. Assays were performed in 96-well microtiter plates in 100 µL of total sample volume. Excitation and emission wavelengths appropriate for the employed detection analyte were used. A general note: Fluorescence polarisation rises when a labelled molecule tumbles more slowly, as on binding a larger partner.
Sequence of Hematopoietic prostaglandin D synthase (O60760 whole entry, the tested form may be a part): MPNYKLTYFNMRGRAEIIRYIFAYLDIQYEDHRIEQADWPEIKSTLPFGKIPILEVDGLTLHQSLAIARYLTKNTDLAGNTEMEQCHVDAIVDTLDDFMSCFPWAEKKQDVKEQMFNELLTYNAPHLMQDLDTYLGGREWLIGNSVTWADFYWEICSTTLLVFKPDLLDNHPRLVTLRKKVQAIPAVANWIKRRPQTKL

The term IC50 denotes the concentration needed to halve the response being measured.

Regarding `COC(=O)c1cc(-c2cnc(Oc3ccccc3)nc2)[nH]n1`, the IC50 came to 2 µM.
